# Target: Replicase polyprotein 1ab (Severe acute respiratory syndrome coronavirus 2) (UniProt P0DTD1)
# Description: Functional biochemical assay to identify treatments for viral infectious disease that targets SARS-COV-2 nsp3 macrodomain, whereby the mechanism of action displaces an ADP-Ribose modified peptide from the binding site. Utilizing a time-resolved fluorescence method to measure binding by reading the emitted fluorescence intensity in two wavelengths.
structure (smiles),measurement,setting,value
CN(C[C@H]1CCCN1)C(=O)c1cnn2ccc(C3CCN(C(=O)c4ccccc4)CC3)cc12,inhibition,"Concentration 49.75 uM, Number of replicates 2.0, Standard deviation 0.33 %",-7.47%
same,inhibition,"Concentration 99.5 uM, Number of replicates 2.0, Standard deviation 2.559 %",-6.59%
c1ccc(-c2cc(CNc3ncnc4[nH]ccc34)on2)cc1,inhibition,"Concentration 50.0 uM, Number of replicates 2.0, Standard deviation 8.772 %",7.14%
same,inhibition,"Concentration 100.0 uM, Number of replicates 2.0, Standard deviation 1.845 %",-3.46%
Cc1cccc([C@@H]2CCCN2c2ncnc3[nH]ccc23)n1,inhibition,"Concentration 50.0 uM, Number of replicates 2.0, Standard deviation 4.141 %",0.182%
O=C(NC1CCC(F)(F)CC1)c1ncnc2[nH]ccc12,inhibition,"Concentration 49.75 uM, Number of replicates 2.0, Standard deviation 1.299 %",-3.47%
same,inhibition,"Concentration 99.5 uM, Number of replicates 2.0, Standard deviation 1.382 %",-5.78%
C[C@@H]1CN(C(=O)c2ccc(NC(=O)Nc3ccccc3)cc2)CC(=O)N1,inhibition,"Concentration 49.75 uM, Number of replicates 2.0, Standard deviation 1.912 %",-0.707%
same,inhibition,"Concentration 99.5 uM, Number of replicates 2.0, Standard deviation 5.834 %",0.29%
CC(C)OCCNC(=O)c1cc2c(=O)n3ccccc3nc2n1C,inhibition,"Concentration 50.0 uM, Number of replicates 2.0, Standard deviation 4.259 %",14%
Cc1ncc(C(=O)N(CCC(=O)N2CCNCC2)Cc2cccc(Cl)c2)cc1N,inhibition,"Concentration 49.75 uM, Number of replicates 2.0, Standard deviation 3.028 %",1.35%
same,inhibition,"Concentration 99.5 uM, Number of replicates 2.0, Standard deviation 0.599 %",1.3%
Nc1ncc(C(=O)N(CCC(=O)N2CCNCC2)Cc2cccc(Cl)c2)cn1,inhibition,"Concentration 49.75 uM, Number of replicates 2.0, Standard deviation 3.901 %",-2.76%
same,inhibition,"Concentration 99.5 uM, Number of replicates 2.0, Standard deviation 0.039 %",-1.73%
c1ccc(Cn2ncc3c2CCC[C@@H]3Nc2ncnc3[nH]ccc23)cc1,inhibition,"Concentration 50.0 uM, Number of replicates 2.0, Standard deviation 3.356 %",5.85%
O=C(Nc1cnc2[nH]ncc2c1)c1noc2c1CCCC2,inhibition,"Concentration 50.0 uM, Number of replicates 2.0, Standard deviation 0.458 %",-1.4%
C(=C1CCCCC1)c1ncnc2[nH]ccc12,inhibition,"Concentration 50.0 uM, Number of replicates 2.0, Standard deviation 3.96 %",-5.46%
same,inhibition,"Concentration 100.0 uM, Number of replicates 2.0, Standard deviation 2.541 %",3.46%
O=C(O)[C@H]1CCCCCN1C(=O)c1ncnc2[nH]ccc12,inhibition,"Concentration 50.0 uM, Number of replicates 2.0, Standard deviation 6.117 %",11.8%
Cc1nn(C)c(NCc2nc(CO)cs2)c1C#N,inhibition,"Concentration 50.0 uM, Number of replicates 2.0, Standard deviation 1.694 %",2.1%
Cn1cc([C@@H](Nc2ncnc3[nH]ccc23)c2ccccc2)cn1,inhibition,"Concentration 49.75 uM, Number of replicates 2.0, Standard deviation 1.638 %",20%
same,inhibition,"Concentration 99.5 uM, Number of replicates 2.0, Standard deviation 1.226 %",39.3%
C[C@H](NC(=O)c1ccc(NC(=O)Nc2ccccc2)cc1)[C@@H]1CCCO1,inhibition,"Concentration 49.75 uM, Number of replicates 2.0, Standard deviation 1.099 %",-4.28%
same,inhibition,"Concentration 99.5 uM, Number of replicates 2.0, Standard deviation 2.587 %",-4.86%
C[C@@H](NC(=O)c1cnn2ccc(C3CCN(C(=O)c4ccccc4)CC3)cc12)c1cc[nH]n1,inhibition,"Concentration 49.75 uM, Number of replicates 2.0, Standard deviation 1.723 %",-4.99%
same,inhibition,"Concentration 99.5 uM, Number of replicates 2.0, Standard deviation 0.833 %",-2.77%
CO[C@@]1(C(=O)O)CCN(C(=O)c2ncnc3[nH]ccc23)C1,inhibition,"Concentration 50.0 uM, Number of replicates 2.0, Standard deviation 2.289 %",-4.18%
same,inhibition,"Concentration 100.0 uM, Number of replicates 2.0, Standard deviation 3.346 %",-3.71%
C[C@@H](Nc1ncnc2[nH]ccc12)c1cnn(Cc2ccccc2)c1,inhibition,"Concentration 49.75 uM, Number of replicates 2.0, Standard deviation 0.659 %",-4.11%
same,inhibition,"Concentration 99.5 uM, Number of replicates 2.0, Standard deviation 0.985 %",3.18%
COC[C@@H](Nc1ncnc2nc[nH]c12)c1ccc(C)o1,inhibition,"Concentration 49.75 uM, Number of replicates 2.0, Standard deviation 2.621 %",-4.64%
same,inhibition,"Concentration 99.5 uM, Number of replicates 2.0, Standard deviation 0.049 %",3.94%
FC(F)(F)c1ccccc1[C@@H]1CN(c2ncnc3[nH]ccc23)CCO1,inhibition,"Concentration 50.0 uM, Number of replicates 2.0, Standard deviation 3.904 %",-5.31%
Cn1ncc2c(NCc3ncccc3O)ncnc21,inhibition,"Concentration 50.0 uM, Number of replicates 2.0, Standard deviation 16.275 %",3.89%
C[C@@H](CO)Nc1ncnc2[nH]c(C(=O)OC(C)(C)C)cc12,inhibition,"Concentration 50.0 uM, Number of replicates 2.0, Standard deviation 12.843 %",10.7%
O=C(O)c1ccsc1C(=O)N1CCC(c2ccn3ncc(C(=O)N4CCCCC4)c3c2)CC1,inhibition,"Concentration 49.75 uM, Number of replicates 2.0, Standard deviation 4.674 %",45%
same,inhibition,"Concentration 99.5 uM, Number of replicates 2.0, Standard deviation 0.647 %",61.2%
Cc1c[nH]nc1C(=O)N1CCC(c2ccn3ncc(C(=O)N4CCCCC4)c3c2)CC1,inhibition,"Concentration 49.75 uM, Number of replicates 2.0, Standard deviation 6.018 %",8.47%
same,inhibition,"Concentration 99.5 uM, Number of replicates 2.0, Standard deviation 4.753 %",27.4%
CC(C)[C@H]1N(c2ncnc3[nH]ccc23)CC12CCOCC2,inhibition,"Concentration 49.75 uM, Number of replicates 2.0, Standard deviation 0.024 %",27.6%
same,inhibition,"Concentration 99.5 uM, Number of replicates 2.0, Standard deviation 0.45 %",48%
CC1(C)CNCCN1C(=O)c1ccc(NC(=O)Nc2ccccc2)cc1,inhibition,"Concentration 49.75 uM, Number of replicates 2.0, Standard deviation 5.654 %",2.24%
same,inhibition,"Concentration 99.5 uM, Number of replicates 2.0, Standard deviation 1.022 %",1.39%
Cn1cc([C@H]2CCCCN2c2ncnc3[nH]ccc23)cn1,inhibition,"Concentration 49.75 uM, Number of replicates 2.0, Standard deviation 3.479 %",6.39%
same,inhibition,"Concentration 99.5 uM, Number of replicates 2.0, Standard deviation 0.865 %",8.32%
Cc1c([C@@H](C)Nc2ncnc3[nH]ccc23)cnn1-c1ccccc1,inhibition,"Concentration 49.75 uM, Number of replicates 2.0, Standard deviation 1.063 %",28.1%
same,inhibition,"Concentration 99.5 uM, Number of replicates 2.0, Standard deviation 3.12 %",41.7%
COCc1cc(CC(=O)Nc2ncnc3[nH]cnc23)no1,inhibition,"Concentration 50.0 uM, Number of replicates 2.0, Standard deviation 0.215 %",2.97%
CN(CCOc1ccccc1)c1ncnc2[nH]ccc12,inhibition,"Concentration 50.0 uM, Number of replicates 2.0, Standard deviation 4.668 %",-2.26%
O=C(Nc1ccccc1)Nc1ccc(C(=O)NCc2ccnc(F)c2)cc1,inhibition,"Concentration 49.75 uM, Number of replicates 2.0, Standard deviation 0.77 %",-0.36%
same,inhibition,"Concentration 99.5 uM, Number of replicates 2.0, Standard deviation 1.377 %",4.92%
Cn1cc([C@@H](Nc2ncnc3[nH]ccc23)C2CCC2)cn1,inhibition,"Concentration 49.75 uM, Number of replicates 2.0, Standard deviation 3.794 %",78.1%
same,inhibition,"Concentration 99.5 uM, Number of replicates 2.0, Standard deviation 1.201 %",91%
C[C@@H](O)[C@@H]1CN(C(=O)c2ncnc3[nH]ccc23)CCO1,inhibition,"Concentration 50.0 uM, Number of replicates 2.0, Standard deviation 0.15 %",-3.13%
Brc1ccc(-n2nnnc2Sc2ncnc3[nH]ccc23)cc1,inhibition,"Concentration 50.0 uM, Number of replicates 2.0, Standard deviation 10.96 %",12.7%
COc1cc(CC(=O)Nc2cc3c(=O)nc[nH]c3cn2)on1,inhibition,"Concentration 49.75 uM, Number of replicates 2.0, Standard deviation 0.449 %",-4.69%
same,inhibition,"Concentration 99.5 uM, Number of replicates 2.0, Standard deviation 2.956 %",-3.48%
O=C(Nc1ccccc1)Nc1ccc(C(=O)N2CCc3ccncc32)cc1,inhibition,"Concentration 49.75 uM, Number of replicates 2.0, Standard deviation 6.741 %",-4.3%
same,inhibition,"Concentration 99.5 uM, Number of replicates 2.0, Standard deviation 1.961 %",0.234%
Cc1ccc(S(=O)(=O)Nc2ccccc2F)cc1C(=O)Nc1cnc2[nH]ncc2c1,inhibition,"Concentration 50.0 uM, Number of replicates 2.0, Standard deviation 3.248 %",0.764%
O=C(Nc1ccccc1)Nc1ccc(C(=O)NCCc2cccnc2)cc1,inhibition,"Concentration 49.75 uM, Number of replicates 2.0, Standard deviation 2.77 %",1.27%
same,inhibition,"Concentration 99.5 uM, Number of replicates 2.0, Standard deviation 0.373 %",10.4%
COCc1cc(CNc2cc3c(O)ncnc3cn2)no1,inhibition,"Concentration 50.0 uM, Number of replicates 2.0, Standard deviation 0.223 %",3.31%
O=C(NCc1cc2n(n1)CCCC2)c1cc2cncnc2[nH]1,inhibition,"Concentration 50.0 uM, Number of replicates 4.0, Standard deviation 10.451 %",4.17%
Cc1n[nH]nc1C(=O)N1CCC(c2ccn3ncc(C(=O)N4CCCCC4)c3c2)CC1,inhibition,"Concentration 49.75 uM, Number of replicates 2.0, Standard deviation 0.483 %",29.3%
same,inhibition,"Concentration 99.5 uM, Number of replicates 2.0, Standard deviation 0.403 %",45.8%
Cn1cnc(C(=O)N(CCC(=O)N2CCNCC2)Cc2cccc(Cl)c2)n1,inhibition,"Concentration 49.75 uM, Number of replicates 2.0, Standard deviation 2.331 %",-1.44%
same,inhibition,"Concentration 99.5 uM, Number of replicates 2.0, Standard deviation 4.384 %",-0.25%
COc1ccc(Nc2ncnc3[nH]ncc23)c(OC)c1,inhibition,"Concentration 50.0 uM, Number of replicates 2.0, Standard deviation 7.795 %",2.6%
O=C(NCc1c[nH]nn1)c1cnn2ccc(C3CCN(C(=O)c4ccccc4)CC3)cc12,inhibition,"Concentration 49.75 uM, Number of replicates 2.0, Standard deviation 0.251 %",-2.86%
same,inhibition,"Concentration 99.5 uM, Number of replicates 2.0, Standard deviation 8.51 %",2.17%
O=C(c1ccnnc1O)N1CCC(c2ccn3ncc(C(=O)N4CCCCC4)c3c2)CC1,inhibition,"Concentration 49.75 uM, Number of replicates 2.0, Standard deviation 0.647 %",-7.59%
same,inhibition,"Concentration 99.5 uM, Number of replicates 2.0, Standard deviation 0.871 %",10.2%
Cc1ccc(C(=O)N(CCC(=O)N2CCNCC2)Cc2cccc(Cl)c2)[nH]1,inhibition,"Concentration 49.75 uM, Number of replicates 2.0, Standard deviation 5.038 %",-5.9%
same,inhibition,"Concentration 99.5 uM, Number of replicates 2.0, Standard deviation 2.609 %",-3.94%
CC(C)n1ncnc1CNc1cc2c(=O)nc[nH]c2cn1,inhibition,"Concentration 50.0 uM, Number of replicates 2.0, Standard deviation 0.347 %",-1.49%
c1ccc2c(-c3c[nH]c4ncccc34)n[nH]c2c1,inhibition,"Concentration 50.0 uM, Number of replicates 2.0, Standard deviation 4.4 %",-7.25%
O=C(c1nnn[nH]1)N1CCC(c2ccn3ncc(C(=O)N4CCCCC4)c3c2)CC1,inhibition,"Concentration 49.75 uM, Number of replicates 2.0, Standard deviation 0.79 %",55.1%
same,inhibition,"Concentration 99.5 uM, Number of replicates 2.0, Standard deviation 0.232 %",69%
Cc1nc(NC(=O)c2ccnn2C(C)C)c2cc[nH]c2n1,inhibition,"Concentration 50.0 uM, Number of replicates 2.0, Standard deviation 4.637 %",-2.64%
same,inhibition,"Concentration 100.0 uM, Number of replicates 2.0, Standard deviation 4.768 %",-4.35%
Cc1cc(NCc2csc(C)n2)ncn1,inhibition,"Concentration 50.0 uM, Number of replicates 2.0, Standard deviation 0.576 %",-4.64%
